Columns and labels:
Macrophage [1] = assay: Antiinflammatory activity in Escherichia coli O6:K2:H1-induced human M2 macrophage assessed as change in PGD2 level at 1 uM preincubated for 10 mins followed by Escherichia coli O6:K2:H1-stimulation and measured after 180 mins by UPLC-MS/MS analysis relative to control; type: functional
Macrophage [2] = assay: Antiinflammatory activity in Escherichia coli O6:K2:H1-induced human M2 macrophage assessed as change in […] level at 10 uM preincubated for 10 mins followed by Escherichia coli O6:K2:H1-stimulation and measured after 180 mins by UPLC-MS/MS analysis relative to control; type: functional
Macrophage [3] = assay: Antiinflammatory activity in Escherichia coli O6:K2:H1-induced human M2 macrophage assessed as change in 7-HDHA level at 10 uM preincubated for 10 mins followed by Escherichia coli O6:K2:H1-stimulation and measured after 180 mins by UPLC-MS/MS analysis relative to control; type: functional
Macrophage [4] = assay: Antiinflammatory activity in Escherichia coli O6:K2:H1-induced human M1 macrophage assessed as change in 5.15-dlHETE level at 10 uM preincubated for 10 mins followed by Escherichia coli O6:K2:H1-stimulation and measured after 180 mins by UPLC-MS/MS analysis relative to control; type: functional
Macrophage [5] = assay: Antiinflammatory activity in Escherichia coli O6:K2:H1-induced human M2 macrophage assessed as change in 5.15-dlHETE level at 10 uM preincubated for 10 mins followed by Escherichia coli O6:K2:H1-stimulation and measured after 180 mins by UPLC-MS/MS analysis relative to control; type: functional
[6] = molecular target: T1, Bifunctional epoxide hydrolase 2 (Homo sapiens, UniProt P34913); assay: Inhibition of full length human soluble epoxide hydrolase (1 to 555 residues) expressed in Escherichia coli BL21(DE3) using non-fluorescent PHOME as substrate preincubated for 30 mins followed by substrate addition and measured for 30 mins by fluorescence based assay
T1 sequence (P34913 whole entry): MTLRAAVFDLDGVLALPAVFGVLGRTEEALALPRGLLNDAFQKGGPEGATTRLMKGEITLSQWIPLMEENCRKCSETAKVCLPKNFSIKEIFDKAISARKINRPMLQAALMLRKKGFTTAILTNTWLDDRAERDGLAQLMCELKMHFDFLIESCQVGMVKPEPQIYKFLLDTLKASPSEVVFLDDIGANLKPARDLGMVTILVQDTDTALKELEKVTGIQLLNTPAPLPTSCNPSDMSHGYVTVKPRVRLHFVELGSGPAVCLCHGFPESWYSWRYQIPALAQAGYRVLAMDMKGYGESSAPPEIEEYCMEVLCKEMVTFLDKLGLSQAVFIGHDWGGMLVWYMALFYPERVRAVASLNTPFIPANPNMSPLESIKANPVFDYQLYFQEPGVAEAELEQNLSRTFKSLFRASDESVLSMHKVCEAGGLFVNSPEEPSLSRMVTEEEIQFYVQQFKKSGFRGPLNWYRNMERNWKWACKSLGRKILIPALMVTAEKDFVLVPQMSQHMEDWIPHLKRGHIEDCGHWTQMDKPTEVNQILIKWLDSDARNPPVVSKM

Macrophage [7] = assay: Antiinflammatory activity in Escherichia coli O6:K2:H1-induced human M1 macrophage assessed as change in PGF2alpha level at 10 uM preincubated for 10 mins followed by Escherichia coli O6:K2:H1-stimulation and measured after 180 mins by UPLC-MS/MS analysis relative to control; type: functional
Macrophage [8] = assay: Antiinflammatory activity in Escherichia coli O6:K2:H1-induced human M1 macrophage assessed as change in 17-HDHA level at 10 uM preincubated for 10 mins followed by Escherichia coli O6:K2:H1-stimulation and measured after 180 mins by UPLC-MS/MS analysis relative to control; type: functional
Macrophage [9] = assay: Antiinflammatory activity in Escherichia coli O6:K2:H1-induced human M1 macrophage assessed as change in 14-HDHA level at 1 uM preincubated for 10 mins followed by Escherichia coli O6:K2:H1-stimulation and measured after 180 mins by UPLC-MS/MS analysis relative to control; type: functional
Macrophage [10] = assay: Antiinflammatory activity in Escherichia coli O6:K2:H1-induced human M2 macrophage assessed as change in 12-HETE level at 10 uM preincubated for 10 mins followed by Escherichia coli O6:K2:H1-stimulation and measured after 180 mins by UPLC-MS/MS analysis relative to control; type: functional
Macrophage [11] = assay: Antiinflammatory activity in Escherichia coli O6:K2:H1-induced human M1 macrophage assessed as change in 12-HEPE level at 10 uM preincubated for 10 mins followed by Escherichia coli O6:K2:H1-stimulation and measured after 180 mins by UPLC-MS/MS analysis relative to control; type: functional
Macrophage [12] = assay: Antiinflammatory activity in Escherichia coli O6:K2:H1-induced human M1 macrophage assessed as change in 15-HEPE level at 1 uM preincubated for 10 mins followed by Escherichia coli O6:K2:H1-stimulation and measured after 180 mins by UPLC-MS/MS analysis relative to control; type: functional
Macrophage [13] = assay: Antiinflammatory activity in Escherichia coli O6:K2:H1-induced human M1 macrophage assessed as change in 7-HDHA level at 10 uM preincubated for 10 mins followed by Escherichia coli O6:K2:H1-stimulation and measured after 180 mins by UPLC-MS/MS analysis relative to control; type: functional
Macrophage [14] = assay: Antiinflammatory activity in Escherichia coli O6:K2:H1-induced human M1 macrophage assessed as change in 12-HEPE level at 1 uM preincubated for 10 mins followed by Escherichia coli O6:K2:H1-stimulation and measured after 180 mins by UPLC-MS/MS analysis relative to control; type: functional
Macrophage [15] = assay: Antiinflammatory activity in Escherichia coli O6:K2:H1-induced human M1 macrophage assessed as change in total LTB4 level at 1 uM preincubated for 10 mins followed by Escherichia coli O6:K2:H1-stimulation and measured after 180 mins by UPLC-MS/MS analysis relative to control; type: functional
Macrophage [16] = assay: Antiinflammatory activity in Escherichia coli O6:K2:H1-induced human M1 macrophage assessed as change in 5-HETE level at 1 uM preincubated for 10 mins followed by Escherichia coli O6:K2:H1-stimulation and measured after 180 mins by UPLC-MS/MS analysis relative to control; type: functional
Macrophage [17] = assay: Antiinflammatory activity in Escherichia coli O6:K2:H1-induced human M1 macrophage assessed as change in 15-HETE level at 10 uM preincubated for 10 mins followed by Escherichia coli O6:K2:H1-stimulation and measured after 180 mins by UPLC-MS/MS analysis relative to control; type: functional
Macrophage [18] = assay: Antiinflammatory activity in Escherichia coli O6:K2:H1-induced human M1 macrophage assessed as change in PGD2 level at 10 uM preincubated for 10 mins followed by Escherichia coli O6:K2:H1-stimulation and measured after 180 mins by UPLC-MS/MS analysis relative to control; type: functional

`O=C(Cc1ccc(Oc2nc3ccccc3s2)cc1F)NCCc1ccc(F)cc1` showed an Activity (Macrophage [1]) of 63%, an Activity (Macrophage [2]) of 26% and an Activity (Macrophage [3]) of 77%. It also gave an Activity (Macrophage [4]) of 97%, an Activity (Macrophage [5]) of 101% and an IC50 [6] of 300 nM. It also gave an Activity (Macrophage [7]) of 80%, an Activity (Macrophage [8]) of 269% and an Activity (Macrophage [9]) of 110%. The Activity (Macrophage [10]) was 114%, the Activity (Macrophage [11]) was 113% and the Activity (Macrophage [12]) was 97%. The Activity (Macrophage [13]) was 66%, the Activity (Macrophage [14]) was 95% and the Activity (Macrophage [15]) was 132%. It also gave an Activity (Macrophage [16]) of 164%, an Activity (Macrophage [17]) of 151% and an Activity (Macrophage [18]) of 97%.

Reference: ChEMBL document CHEMBL4342480, “Design of Dual Inhibitors of Soluble Epoxide Hydrolase and LTA4 Hydrolase” (ACS Med Chem Lett, 2020)
